# What was measured:
# [1] = system: CST murine breast cancer cell line; assay: Monoculture PrestoBlue cytotoxicity test, CST; type: cell-based, mouse; conditions: 120 h exposure
# Protocol: (§1) CST, a drug-naïve murine breast cancer cell line, and cisplatin-resistant cells CST-2/3 were seeded in monoculture into 384-well plates (Corning Inc., Corning, NY, USA) at a density of 2500 cells per well using automated liquid-handling. The cells were preincubated for 24 h to ensure adherence, followed by the addition of serially diluted compounds to a final well volume of 60 µL. Following 120 h of continuous drug exposure, cell viability was quantified using the PrestoBlue viability assay (Thermo Fisher Scientific, Waltham, MA, USA) after 1 h incubation at 555 nm excitation and 585 nm emission wavelengths.
# (§2) pIC50 values derived from both co- and monoculture systems were determined by a custom program written in C# [25], then average and standard deviations were calculated and transformed to IC50 values. Every compound was tested in at least 3 independent experiments in triplicates.
# [2] = system: CST-2/3 cisplatin-resistant cells; assay: Monoculture PrestoBlue cytotoxicity test, cisplatin-resistant CST-2/3; type: cell-based, mouse; conditions: for RR_CST resistance ratio (IC50_CST-2/3 / IC50_CST): CST-2/3 vs CST; for IC50: monoculture, 120 h exposure, PrestoBlue
# Protocol: as §1, §2
# [3] = system: Mes-Sa mCherry uterine sarcoma cell line; assay: Triple coculture fluorescence cytotoxicity test, parental line; type: cell-based, human; conditions: 144 h incubation, fluorescence readout
# Protocol: (§3) All synthesized complexes and representatives of the respective ligands (Lb, Lc, SIPr, IPr) were tested in a triple coculture of uterine sarcoma cell lines, consisting of the parental Mes-Sa cell line, and its MDR derivatives Mes-Sa/B1 and Mes-Sa/Dx5, transfected or selected in doxorubicin to overexpress P-glycoprotein, respectively (Figure 2a–c, Table S2). Each cell line expresses a distinct fluorescent protein (mCherry, mOrange, and eGFP, respectively), and the total fluorescence of a well is proportional to the cell number, allowing the assessment of compound cytotoxicity.
# (§4) In a triple coculture system, cell lines expressing different fluorescent proteins were seeded in the same well. Cell lines (Mes-Sa mCherry, Mes-Sa/B1 mOrange, Mes-Sa/Dx5 eGFP [25]) were admixed and seeded on 384-well plates at a density of 3 × 800 cells/well (1:1:1 ratio), resulting in an overall total of 2400 cells. The next day, serially diluted compounds were added to the wells. Liquid handling was managed by a Hamilton StarLet pipetting robot. After 144 h of incubation, the fluorescence of mCherry (ex/em: 585/610 nm), mOrange (ex/em: 545/567 nm) and eGFP (ex/em: 485/510 nm) was recorded with an EnSpire plate reader (PerkinElmer, Waltham, MA, USA).
# as §2
# Mes-Sa/B1 mOrange = assay: Triple coculture fluorescence cytotoxicity test, ABCB1-transfected MDR line; type: cell-based, human; conditions: for RR_B1 resistance ratio (IC50_MDR line / IC50_parental line) of Mes-Sa/B1: Mes-Sa/B1 vs Mes-Sa; for IC50: triple coculture, 144 h incubation, fluorescence readout
# Protocol: as §3, §4, §2
# Mes-Sa/Dx5 eGFP = assay: Triple coculture fluorescence cytotoxicity test, doxorubicin-selected MDR line; type: cell-based, human; conditions: for RR_Dx5 resistance ratio (IC50_MDR line / IC50_parental line) of Mes-Sa/Dx5: Mes-Sa/Dx5 vs Mes-Sa; for IC50: triple coculture, 144 h incubation, fluorescence readout
# Protocol: as §3, §4, §2
Compound,IC50 [3],RR_B1 resistance ratio (IC50_MDR line / IC50_parental line) of Mes-Sa/B1 (Mes-Sa/B1 mOrange),IC50 (Mes-Sa/B1 mOrange),RR_Dx5 resistance ratio (IC50_MDR line / IC50_parental line) of Mes-Sa/Dx5 (Mes-Sa/Dx5 eGFP),IC50 (Mes-Sa/Dx5 eGFP),further results
"N.N.O=C([O-])C1(C(=O)[O-])CCC1.[Pt+2] [Carboplatin, reference compound]",–,–,–,–,–,IC50 [1]: 0.89 µM; RR_CST resistance ratio (IC50_CST-2/3 / IC50_CST) [2]: 7.0; IC50 [2]: 6.24 µM
CC(C)c1cccc(C(C)C)c1N1[CH]([Cu][Cl])N(Cc2ccccc2)C[C@@H]1C(C)(C)C (stereo partly shown) [Compound 1a],0.52 µM,4.7,2.45 µM,1.3,0.69 µM,–
CC(C)c1cccc(C(C)C)c1N1[CH]([Cu][Cl])N([C@@H](C)c2ccccc2)C[C@@H]1C(C)(C)C (stereo partly shown) [Compound 1b],1.74 µM,4.9,8.51 µM,1.3,2.32 µM,IC50 ([3]; listed as 1b*): 0.75 µM; RR_B1 resistance ratio (IC50_MDR line / IC50_parental line) of Mes-Sa/B1 (Mes-Sa/B1 mOrange; listed as 1b*): 7.0; IC50 (Mes-Sa/B1 mOrange; listed as 1b*): 5.25 µM; RR_Dx5 resistance ratio (IC50_MDR line / IC50_parental line) of Mes-Sa/Dx5 (Mes-Sa/Dx5 eGFP; listed as 1b*): 1.9; IC50 (Mes-Sa/Dx5 eGFP; listed as 1b*): 1.46 µM; IC50 [1]: 2.81 µM; RR_CST resistance ratio (IC50_CST-2/3 / IC50_CST) [2]: 1.8; IC50 [2]: 4.92 µM
CC(C)c1cccc(C(C)C)c1N1[CH]([Cu][Cl])N([C@H](C)c2ccccc2)C[C@@H]1C(C)(C)C (stereo partly shown) [Compound 1c],0.8 µM,6.9,5.5 µM,1.5,1.18 µM,IC50 ([3]; listed as 1c*): 0.74 µM; RR_B1 resistance ratio (IC50_MDR line / IC50_parental line) of Mes-Sa/B1 (Mes-Sa/B1 mOrange; listed as 1c*): 5.4; IC50 (Mes-Sa/B1 mOrange; listed as 1c*): 3.97 µM; RR_Dx5 resistance ratio (IC50_MDR line / IC50_parental line) of Mes-Sa/Dx5 (Mes-Sa/Dx5 eGFP; listed as 1c*): 2.9; IC50 (Mes-Sa/Dx5 eGFP; listed as 1c*): 2.18 µM
CC(C)c1cccc(C(C)C)c1N1[C](=[Cu][Cl])N([C@@H](C)c2cccc3ccccc23)C[C@@H]1C(C)(C)C [Compound 1d],0.51 µM,9.8,4.94 µM,3.4,1.74 µM,IC50 [1]: 1.38 µM; RR_CST resistance ratio (IC50_CST-2/3 / IC50_CST) [2]: 1.3; IC50 [2]: 1.82 µM
CC(C)c1cccc(C(C)C)c1N1[CH]([Cu][Cl])N([C@@H](C)C(C)(C)C)C[C@@H]1C(C)(C)C (stereo partly shown) [Compound 1f],3.04 µM,2.7,8.13 µM,1.4,4.19 µM,–
CC(C)c1cccc(C(C)C)c1N1[C](=[Ag][Cl])N([C@@H](C)c2ccccc2)C[C@@H]1C(C)(C)C [Compound 2b],0.75 µM,19.1,14.3 µM,7.3,5.5 µM,IC50 [1]: 1.01 µM; RR_CST resistance ratio (IC50_CST-2/3 / IC50_CST) [2]: 2.2; IC50 [2]: 2.17 µM
CC(C)c1cccc(C(C)C)c1N1[C](=[Ag][Cl])N([C@H](C)c2ccccc2)C[C@@H]1C(C)(C)C [Compound 2c],1.69 µM,8.5,14.4 µM,4.2,7.14 µM,–
CC(C)c1cccc(C(C)C)c1N1[C](=[Ag][Cl])N([C@@H](C)c2cccc3ccccc23)C[C@@H]1C(C)(C)C [Compound 2d],0.54 µM,9.6,5.2 µM,6.2,3.37 µM,–
CC(C)c1cccc(C(C)C)c1N1[C](=[Ag][Cl])N([C@H](C)c2ccc3ccccc3c2)C[C@@H]1C(C)(C)C [Compound 2e],0.93 µM,7.9,7.37 µM,5.6,5.25 µM,IC50 [1]: 1.28 µM; RR_CST resistance ratio (IC50_CST-2/3 / IC50_CST) [2]: 1.5; IC50 [2]: 1.98 µM
CC(C)c1cccc(C(C)C)c1N1[C](=[Ag][Cl])N([C@@H](C)C(C)(C)C)C[C@@H]1C(C)(C)C [Compound 2f],0.74 µM,5.1,3.77 µM,1.8,1.37 µM,–
CC(C)c1cccc(C(C)C)c1N1[C](=[Au][Cl])N([C@H](C)c2ccccc2)C[C@@H]1C(C)(C)C [Compound 3c],18.6 µM,2.1,39.8 µM,2.1,39.6 µM,–
CC(C)c1cccc(C(C)C)c1N1[C](=[Au][Cl])N([C@H](C)c2ccc3ccccc3c2)C[C@@H]1C(C)(C)C [Compound 3e],7.47 µM,2.6,19.1 µM,2.3,16.9 µM,–
CC(C)c1cccc(C(C)C)c1N1[C](=[Au][Cl])N([C@@H](C)C(C)(C)C)C[C@@H]1C(C)(C)C [Compound 3f],11.4 µM,1.6,18.6 µM,1.2,13.8 µM,–
C=C[CH2][Pd]([Cl])=[C]1N([C@@H](C)c2ccccc2)C[C@H](C(C)(C)C)N1c1c(C(C)C)cccc1C(C)C [Compound 4b],5.19 µM,1.8,9.33 µM,2.4,12.2 µM,–
CC(C)c1cccc(C(C)C)c1-n1ccn(-c2c(C(C)C)cccc2C(C)C)[c]1=[Cu][Cl] [Compound 5b],1.01 µM,2.0,2 µM,1.8,1.83 µM,–
CC(C)c1cccc(C(C)C)c1-n1ccn(-c2c(C(C)C)cccc2C(C)C)[c]1=[Ag][Cl] [Compound 6b],1.82 µM,2.4,4.37 µM,2.1,3.89 µM,–
CC(C)c1cccc(C(C)C)c1-n1ccn(-c2c(C(C)C)cccc2C(C)C)[c]1=[Au][Cl] [Compound 7b],18.6 µM,1.9,36.3 µM,3.2,60.3 µM,–
CC(C)c1cccc(C(C)C)c1-n1ccn(-c2c(C(C)C)cccc2C(C)C)[c]1=[Cu+]=[c]1n(-c2c(C(C)C)cccc2C(C)C)ccn1-c1c(C(C)C)cccc1C(C)C.F[B-](F)(F)F [Compound 9b],0.058 µM,38.0,2.19 µM,37.3,2.15 µM,–
"COc1cc([C@@H]2c3cc4c(cc3[C@@H](O[C@@H]3O[C@@H]5CO[C@@H](C)O[C@H]5[C@H](O)[C@H]3O)[C@H]3COC(=O)[C@H]23)OCO4)cc(OC)c1O [Etoposide, reference compound]",–,9.0,–,15.4,–,"IC50 ([3]; Homo sapiens, MES-SA): 0.12 µM; IC50 (Mes-Sa/B1 mOrange; Homo sapiens, MES-SA): 1.11 µM; IC50 (Mes-Sa/Dx5 eGFP; Homo sapiens, MES-SA/Dx5): 1.9 µM"
"CC(C)c1cccc(C(C)C)c1-n1cc[n+](-c2c(C(C)C)cccc2C(C)C)c1 [IPr, reference compound]",–,15.5,–,23.4,–,"IC50 ([3]; Homo sapiens, MES-SA): 2.19 µM; IC50 (Mes-Sa/B1 mOrange; Homo sapiens, MES-SA): 33.9 µM; IC50 (Mes-Sa/Dx5 eGFP; Homo sapiens, MES-SA/Dx5): 51.3 µM"
CC(C)c1cccc(C(C)C)c1N1C=[N+]([C@H](C)c2ccccc2)C[C@@H]1C(C)(C)C [Lc],–,21.4,–,30.4,–,"IC50 ([3]; Homo sapiens, MES-SA): 2.4 µM; IC50 (Mes-Sa/B1 mOrange; Homo sapiens, MES-SA): 51.3 µM; IC50 (Mes-Sa/Dx5 eGFP; Homo sapiens, MES-SA/Dx5): 73 µM"
"O=C1[O][Pt]2([NH][C@@H]3CCCC[C@H]3[NH]2)[O]C1=O [Oxaliplatin, reference compound]",–,–,–,–,–,IC50 [1]: 0.41 µM; RR_CST resistance ratio (IC50_CST-2/3 / IC50_CST) [2]: 9.3; IC50 [2]: 3.84 µM

# Reference: paper PMC12692346, “Imidazolinium-Based NHC–Metal Complexes Overcome Both Cancer Multidrug Resistance and Cisplatin Resistance In Vitro” (International Journal of Molecular Sciences, 2025)
